Test results reported in US8394836B2, “Indoles and their therapeutic use” (Pulmagen Therapeutics (Asthma) Limited, priority 2007, dated 2013).

Key:
CRTH2 receptor [1] = biological target: T1, CRTH2 receptor (Homo sapiens, UniProt Q9Y5Y4); experiment: GTPγS functional assay; assay type: biochemical; details: HEK cell membranes expressing the CRTH2 receptor; PGD2 30 nM; [35S]-GTPγS; Ki from IC50 by Cheng-Prusoff
T1 construct: expressed in transfected cells; host or cells: Human embryonic kidney (HEK) cells, used as membranes
T1 sequence (Q9Y5Y4 1-395): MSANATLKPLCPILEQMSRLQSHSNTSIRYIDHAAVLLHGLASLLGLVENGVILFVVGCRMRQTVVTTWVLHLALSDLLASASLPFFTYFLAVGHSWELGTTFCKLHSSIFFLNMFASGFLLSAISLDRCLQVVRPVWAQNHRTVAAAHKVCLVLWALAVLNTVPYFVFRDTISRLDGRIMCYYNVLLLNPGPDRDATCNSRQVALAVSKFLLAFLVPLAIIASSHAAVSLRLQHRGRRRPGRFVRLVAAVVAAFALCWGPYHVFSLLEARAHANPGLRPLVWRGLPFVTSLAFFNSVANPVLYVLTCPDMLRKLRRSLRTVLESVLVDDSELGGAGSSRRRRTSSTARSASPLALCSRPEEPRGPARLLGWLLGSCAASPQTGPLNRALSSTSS
Procedure: The GTP[…]S Assay is performed in a final volume of […] assay buffer (20 mM HEPES pH 7.4, 10 mM MgCl2, 100 mM NaCl, 10 μg/mL saponin). DMSO concentrations are kept constant at 1% by volume. Human embryonic kidney (HEK) cell membranes (3.5 μg) expressing the CRTH2 receptor are incubated with the compounds for 15 min at 30° C. prior to addition of PGD2 (30 nM final concentration) and GTP (10 μM final concentration). The assay solutions are then incubated for 30 minutes at 30° C., followed by addition of [^35S]-GTPγS (0.1 nM final concentration). The assay plate is than shaken and incubated for 5 minutes at 30° C. Finally, SPA beads (Amersham Biosciences, UK) are added to a final concentration of 1.5 mg/well and the plate shaken and incubated for 30 minute at 30° C. The sealed plate is centrifuged at 1000 g for 10 mins at 30° C. and the bound [^35S]-GTPγS is detected on Microbeta scintillation counter (Perkin Elmer). Compound IC50 value is determined using a 6-point dose response curve in duplicate with a semi-log compound dilution series. IC50 calculations are performed using Excel and XLfit (Microsoft), and this value is used to determine a Ki value for the test compound using the Cheng-Prusoff equation.

CRTH2 receptor [2] = biological target: T1, CRTH2 receptor; experiment: CRTH2 radioligand binding assay ([3H]-PGD2 displacement, SPA); details: HEK cell membranes expressing the CRTH2 receptor; 1 nM [3H]-PGD2; Ki from IC50 by Cheng-Prusoff
Procedure: Compounds of the invention were tested using the following biological test method to determine their ability to displace PGD2 from the CRTH2 receptor.
CRTH2 Radioligand Binding Assay
The receptor binding assay is performed in a final volume of 200 μL binding buffer [10 mM BES (pH 7.4), 1 mM EDTA, 10 mM manganese chloride, 0.01% BSA] and 1 nM [^3H]-PGD2 (Amersham Biosciences UK Ltd). Ligands are added in assay buffer containing a constant amount of DMSO (1% by volume). Total binding is determined using 1% by volume of DMSO in assay buffer and non-specific binding is determined using 10 μM of unlabeled PGD2 (Sigma). Human embryonic kidney (HEK) cell membranes (3.5 μg) expressing the CRTH2 receptor are incubated with 1.5 mg wheatgerm agglutinin SPA beads and 1 nM [^3H]-PGD2 (Amersham Biosciences UK Ltd) and the mixture incubated for 3 hours at room temperature. Bound [^3H]-PGD2 is detected using a Microbeta TRILUX liquid scintillation counter (Perkin Elmer). Compound IC50 value is determined using a 6-point dose response curve in duplicate with a semi-log compound dilution series. IC50 calculations are performed using Excel and XLfit (Microsoft), and this value is used to determine a Ki value for the test compound using the Cheng-Prusoff equation.

Ki (CRTH2 receptor [1])	Ki (CRTH2 receptor [2])	SMILES
< 10 nM	4.5 nM	Cc1c(Cc2cccnc2S(=O)(=O)c2ccccc2)c2cc(Cl)ccc2n1CC(=O)O [Example 26, {5-chloro-3-[2-(benzenesulfonyl)pyridine-3-ylmethyl]-2-methylindol-1-yl}acetic acid]
–	0.6 nM	Cc1c(Cc2ccccc2S(=O)(=O)N(C)c2ccccc2)c2cc(F)ccc2n1CC(=O)O [Example 21, {5-fluoro-2-methyl-3-[2-(methylphenylsulfamoyl)benzyl]indol-1-yl}acetic acid]
< 10 nM	1.5 nM	Cc1c(Cc2sccc2S(=O)(=O)c2ccc(F)cc2)c2cc(F)ccc2n1CC(=O)O [Example 1, {5-fluoro-3-[3-(4-fluorobenzenesulfonyl)thiophen-2-ylmethyl]-2-methylindol-1-yl}acetic acid]
< 10 nM	2.4 nM	Cc1c(Cc2sccc2S(=O)(=O)c2ccccn2)c2cc(F)ccc2n1CC(=O)O [Example 16, {5-fluoro-2-methyl-3-[3-(pyridine-2-sulfonyl)thiophen-2-ylmethyl]indol-1-yl}acetic acid]
